Data reported in patent publication US7435837B2, “Dihydrobenzofuranyl alkanamine derivatives and methods for using same” (Wyeth, priority 2003, dated 2008).
Structures can show the parent of a compound that is named as a salt.

SMILES	melting point [°C]
Cc1ccc(-c2cccc3c2OC(CN)C3)cc1 (single isomer, unassigned; (+)) (as salt: hydrobromid) [Example 71, (+)-1-[7-(4-methylphenyl)-2,3-dihydro-1-benzofuran-2-yl]methanamine]	> 250
NCC1Cc2cccc(-c3ccc(F)cc3)c2O1 (single isomer, unassigned; (+)) (as salt: hydrobromid) [Example 74, (+)-1-[7-(4-fluorophenyl)-2,3-dihydro-1-benzofuran-2-yl]methanamine]	207 to 208
NCC1Cc2cccc(-c3ccc(Cl)cc3)c2O1 (single isomer, unassigned; (+)) (as salt: hydrobromid) [Example 77, (+)-1-[7-(4-chlorophenyl)-2,3-dihydro-1-benzofuran-2-yl]methanamine]	229 to 231
NCC1Cc2cccc(Cc3ccccc3)c2O1 (single isomer, unassigned; (+)) (as salt: hydrochloride) [Example 16, (+)-1-(7-benzyl-2,3-dihydro-1-benzofuran-2-yl)methanamine]	128 to 131
CC(C)(C)c1cccc2c1OC(CN)C2 (single isomer, unassigned; (+)) (as salt: hydrochloride) [Example 26, (+)-1-(7-tert-butyl-2,3-dihydro-1-benzofuran-2-yl)methanamine]	177 to 179
Cc1cccc(-c2cccc3c2OC(CN)C3)c1 (single isomer, unassigned; (+)) (as salt: hydrochloride) [Example 42, (+)-1-[7-(3-methylphenyl)-2,3-dihydro-1-benzofuran-2-yl]methanamine]	196 to 198
Cc1ccccc1-c1cccc2c1OC(CN)C2 (single isomer, unassigned; (+)) (as salt: hydrochloride) [Example 48, (+)-1-[7-(2-methylphenyl)-2,3-dihydro-1-benzofuran-2-yl]methanamine]	211 to 212
NCC1Cc2cccc(-c3ccccc3F)c2O1 (single isomer, unassigned; (+)) (as salt: hydrochloride) [Example 51, (+)-1-[7-(2-fluorophenyl)-2,3-dihydro-1-benzofuran-2-yl]methanamine]	227 to 228
NCC1Cc2cccc(-c3ccccc3C(F)(F)F)c2O1 (single isomer, unassigned; (+)) (as salt: hydrochloride) [Example 55, (+)-1-{7-[2-(trifluoromethyl)phenyl]-2,3-dihydro-1-benzofuran-2-yl}methanamine]	97 to 100
CC(C)c1ccccc1-c1cccc2c1OC(CN)C2 (single isomer, unassigned; (+)) (as salt: hydrochloride) [Example 62, (+)-[7-(2-isopropylphenyl)-2,3-dihydro-1-benzofuran-2-yl]methylamine]	205 to 206
NCC1Cc2c(cccc2-c2ccccc2)O1 (single isomer, unassigned; (-)) (as salt: hydrobromid) [Example 3, (−)-1-(4-phenyl-2,3-dihydro-1-benzofuran-2-yl)methanamine]	227 to 228
Cc1ccccc1-c1cccc2c1CC(CN)O2 (single isomer, unassigned; (-)) (as salt: hydrobromid) [Example 6, (−)-1-[4-(2-methylphenyl)-2,3-dihydro-1-benzofuran-2-yl]methanamine]	231 to 233
NCC1Cc2cccc(C3CCCC3)c2O1 (single isomer, unassigned; (-)) (as salt: hydrobromid) [Example 9, (−)-(7-cyclopentyl-2,3-dihydro-1-benzofuran-2-yl)methylamine]	208 to 211
CC(C)(C)c1cc(Cl)cc2c1OC(CN)C2 (single isomer, unassigned; (-)) (as salt: hydrobromid) [Example 28, (−)-1-(7-tert-butyl-5-chloro-2,3-dihydro-1-benzofuran-2-yl)methanamine]	219 to 222
NCC1Cc2cccc(-c3ccsc3)c2O1 (single isomer, unassigned; (-)) (as salt: hydrobromid) [Example 46, (−)-1-(7-thien-3-yl-2,3-dihydro-1-benzofuran-2-yl)methanamine]	234 to 235
NCC1Cc2cccc(-c3cccc(Cl)c3)c2O1 (single isomer, unassigned; (-)) (as salt: hydrobromid) [Example 67, (−)-1-[7-(3-chlorophenyl)-2,3-dihydro-1-benzofuran-2-yl]methanamine]	189 to 190
NCC1Cc2cccc(-c3ccc(F)cc3)c2O1 (single isomer, unassigned; (-)) (as salt: hydrobromid) [Example 75, (−)-1-[7-(4-fluorophenyl)-2,3-dihydro-1-benzofuran-2-yl]methanamine]	208 to 210
NCC1Cc2cccc(-c3ccc(Cl)cc3)c2O1 (single isomer, unassigned; (-)) (as salt: hydrobromid) [Example 78, (−)-1-[7-(4-chlorophenyl)-2,3-dihydro-1-benzofuran-2-yl]methanamine]	233 to 235
CC(C)c1cccc2c1OC(CN)C2 (single isomer, unassigned; (-)) (as salt: hydrochloride) [Example 19, (−)-(7-isopropyl-2,3-dihydro-1-benzofuran-2-yl)methylamine]	176 to 178
CC(C)(C)c1cccc2c1OC(CN)C2 (single isomer, unassigned; (-)) (as salt: hydrochloride) [Example 25, (−)-1-(7-tert-butyl-2,3-dihydro-1-benzofuran-2-yl)methanamine]	178 to 180
NCC1Cc2cccc(-c3ccccc3)c2O1 (single isomer, unassigned; (-)) (as salt: hydrochloride) [Example 38, (−)-1-(7-phenyl-2,3-dihydro-1-benzofuran-2-yl)methanamine]	220 to 222

Results, then the compound that gave them:

melting point [°C]	SMILES
201 to 203	NCC1Cc2cc(Cl)cc(-c3ccccc3)c2O1 (single isomer, unassigned; (+)) (as salt: hydrobromid) [Example 85, (+)-1-(5-chloro-7-phenyl-2,3-dihydro-1-benzofuran-2-yl)methanamine]
170 to 172	Cc1ccccc1-c1cc(Cl)cc2c1OC(CN)C2 (single isomer, unassigned; (+)) (as salt: hydrobromid) [Example 96, (+)-1-[5-chloro-7-(2-methylphenyl)-2,3-dihydro-1-benzofuran-2-yl]methanamine]
183 to 186	COc1ccc(-c2cccc3c2OC(CN)C3)cc1 (single isomer, unassigned; (+)) (as salt: hydrochloride) [Example 80, (+)-1-[7-(4-methoxyphenyl)-2,3-dihydro-1-benzofuran-2-yl]methanamine]
263 to 266	CNCC1Cc2cc(Cl)cc(-c3ccsc3)c2O1 (single isomer, unassigned; (+)) (as salt: hydrochloride) [Example 93, (+)-N-[(5-chloro-7-thien-3-yl-2,3-dihydro-1-benzofuran-2-yl)methyl]-N-methylamine]
227 to 230	Cc1ccccc1-c1cc(F)cc2c1OC(CN)C2 (single isomer, unassigned; (+)) (as salt: hydrochloride) [Example 105, (+)-1-[5-fluoro-7-(2-methylphenyl)-2,3-dihydro-1-benzofuran-2-yl]methanamine]
> 250	Cc1cccc(C)c1-c1cccc2c1CC(CN)O2 (single isomer, unassigned; (+)) (as salt: hydrochloride) [Example 126, (+)-1-[4-(2,6-dimethylphenyl)-2,3-dihydro-1-benzofuran-2-yl]methanamine]
180 to 184	COc1ccccc1-c1cccc2c1OC(CN)C2 (single isomer, unassigned; (+)) (as salt: hydrochloride) [Example 128, (+)-1-[7-(2-methoxyphenyl)-2,3-dihydro-1-benzofuran-2-yl]methanamine]
186 to 188	NCC1Cc2cccc(-c3cccc(F)c3)c2O1 (single isomer, unassigned; (+)) (as salt: hydrochloride) [Example 131, (+)-1-[7-(3-fluorophenyl)-2,3-dihydro-1-benzofuran-2-yl]methanamine]
156 to 158	COc1cccc(-c2cccc3c2OC(CN)C3)c1 (single isomer, unassigned; (+)) (as salt: hydrochloride) [Example 133, (+)-1-[7-(3-methoxyphenyl)-2,3-dihydro-1-benzofuran-2-yl]methanamine]
226 to 229	NCC1Cc2cccc(-c3ccc(C(F)(F)F)cc3)c2O1 (single isomer, unassigned; (+)) (as salt: hydrochloride) [Example 137, (+)-1-{7-[4-(trifluoromethyl)phenyl]-2,3-dihydro-1-benzofuran-2-yl}methanamine]
201 to 204	NCC1Cc2cccc(-c3ccc(Cl)cc3Cl)c2O1 (single isomer, unassigned; (+)) (as salt: hydrochloride) [Example 150, (+)-1-[7-(2,4-dichlorophenyl)-2,3-dihydro-1-benzofuran-2-yl]methanamine]
193 to 197	NCC1Cc2cc(F)cc(-c3ccccc3C(F)(F)F)c2O1 (single isomer, unassigned; (+)) (as salt: hydrochloride) [Example 152, (+)-1-{5-fluoro-7-[2-(trifluoromethyl)phenyl]-2,3-dihydro-1-benzofuran-2-yl}methanamine]
185 to 188	COc1ccc(-c2cccc3c2OC(CN)C3)cc1 (single isomer, unassigned; (-)) (as salt: hydrobromid) [Example 81, (−)-1-[7-(4-methoxyphenyl)-2,3-dihydro-1-benzofuran-2-yl]methanamine]
277 to 280	NCC1Cc2cc(Cl)cc(-c3ccsc3)c2O1 (single isomer, unassigned; (-)) (as salt: hydrobromid) [Example 91, (−)-(5-chloro-7-thien-3-yl-2,3-dihydro-1-benzofuran-2-yl)methylamine]
